Assay [1] has as its system MCF-7 human breast cancer cells. Description: [14C]acetate incorporation into total lipids. The format is cell-based. The settings on record: MCF7. The protocol: Measurement of [^14 C]acetate Incorporation into Total Lipids and Determination of IC50 of Compounds
This assay measures the incorporation of [^14C]acetate into total lipids and is a measure of fatty acid synthesis pathway activity in vitro. It is utilized to measure inhibition of fatty acid synthesis in vitro.
MCF-7 human breast cancer cells cultured as above, are plated at 5×10^4 cells per well in 24-well plates. Following overnight incubation, the compounds to be tested, solubilized in DMSO, are added at 5, 10, and 20 μg/ml in triplicate, with lower concentrations tested if necessary. DMSO is added to triplicate wells for a vehicle control. C75 is run at 5 and 10 μg/ml in triplicate as positive controls. After 4 hours of incubation, 0.25 μCi of [^14C]acetate (10 μl volume) is added to each well.
After 2 hours of additional incubation, medium is aspirated from the wells and 800 μl of chloroform:methanol (2:1) and 700 μl of 4 mM MgCl2 is added to each well. Contents of each well are transferred to 1.5 Eppendorf tubes, and spun at full-speed for 2 minutes in a high-speed Eppendorf Microcentrifuge 5415D. After removal of the aqueous (upper) layer, an additional 700 μl of chloroform:methanol (2:1) and 500 μl of 4 mM MgCl2 are added to each tube and then centrifuged for 1 minutes as above. The aqueous layer is removed with a Pasteur pipette and discarded. An additional 400 μl of chloroform:methanol (2:1) and 200 μl of 4 mM MgCl2 are added to each tube, then centrifuged and aqueous layer is discarded. The lower (organic) phase is transferred into a scintillation vial and dried at 40° C. under N2 gas. Once dried, 3 ml of scintillant (APB #NBC5104) is added and vials are counted for ^14C. The Beckman Scintillation counter calculates the average cpm values for triplicates.
The IC50 for the compounds is defined as the concentration of drug leading to a 50% reduction in [^14C]acetate incorporation into lipids compared to controls. This is determined by plotting the average cpm for each inhibitor concentration tested, performing linear regression and computing the best-fit line, r^2 values, and 95% confidence intervals. The average cpm values are computed by the Beckman scintillation counter (Model LS6500) for each compound concentration. Computation of linear regression, best-fit line, r^2, and 95% confidence intervals are calculated using Prism Version 3.0 (Graph Pad Software).

Assay [2] has the same test system. Nature of the assay: XTT cytotoxicity assay, MCF-7 (M). It is filed as cell-based. The settings on record: (M) or no code, MCF-7, 72 hours; for IC50: Homo sapiens, MCF7. Here is the method:
The XTT assay is a non-radioactive alternative for the [^51Cr] release cytotoxicity assay. XTT is a tetrazolium salt that is reduced to a formazan dye only by metabolically active, viable cells. The reduction of XTT is measured spectrophotometrically as OD490-OD650.
To measure the cytotoxicity of specific compounds against cancer cells, 9×10^3 MCF-7 human breast cancer cells, obtained from the American Type Culture Collection are plated per well in 96 well plates in DMEM medium with 10% fetal bovine serum, insulin, penicillin, and streptomycin. Following overnight culture at 37° C. and 5% CO2, the compounds to be tested, dissolved in DMSO, are added to the wells in 1 μl volume at the following concentrations: 80, 40, 20, 10, 5, 2.5, 1.25, and 0.625 μg/ml in triplicate. Additional concentrations are tested if required. 1 μl of DMSO is added to triplicate wells are the vehicle control. C75 is run at 40, 20, 10, […], 10, and 5 in triplicate as positive controls.
After 72 hours of incubation, cells are incubated for 4 hours with the XTT reagent as per manufacturer's instructions (Cell Proliferation Kit II (XTT) Roche). Plates are read at OD490 and OD650 on a Molecular Devices SpectraMax Plus Spectrophotometer. Three wells containing the XTT reagent without cells serve as the plate blank. XTT data are reported as OD490-OD650. Averages and standard error of the mean are computed using SOFTmax Pro software ([…]).
The IC50 for the compounds is defined as the concentration of drug leading to a 50% reduction in OD400-OD650 compared to controls. The OD400-OD650 are computed by the SOFTmax PRO software (Molecular Devices) for each compound concentration. IC50 is calculated by linear regression, plotting the FAS activity as percent of control versus drug concentrations. Linear regression, best-fit line, r^2, and 95% confidence intervals are determined using Prism Version 3.0 (Graph Pad Software).
(Tetrazolium dyes change colour on reduction, which living cells bring about.)

In the next assay the test system is OV. Description: XTT cytotoxicity assay, OV. The format is cell-based.
The next assay concerns H. Nature of the assay: Crystal violet cell growth assay, H. It is filed as cell-based. The conditions noted are these: read-out: Cr. Violet (IC50). Here is the method:
Crystal Violet Cell Growth Assay
The crystal violet assay measure cell growth but not cytotoxicity. This assay employs crystal violet staining of fixed cells in 96-well plates with subsequent solubilization and measurement of OD490 on a spectrophotometer. The OD490 corresponds to cell growth per unit time measured. Cells are treated with the compounds of interest or vehicle controls and IC50 for each compound is computed.
To measure the cytotoxicity of specific compounds against cancer cells, 5×10^4 MCF-7 human breast cancer cells, obtained from the American Type Culture Collection are plated per well in 24 well plates in DMEM medium with 10% fetal bovine serum, penicillin, and streptomycin. Following overnight culture at 37° C. and 5% CO2, the compounds to be tested, dissolved in DMSO, are added to the wells in 1 μl volume at the following concentrations: 50, 40, 30, 20, and 10 μg/ml in triplicate. Additional concentrations are tested if required. 1 μl of DMSO is added to triplicate wells are the vehicle control. C75 is run at 10, and 5 μg/ml in triplicate as positive controls.
After 72 hours of incubation, cells are stained with 0.5 ml of Crystal Violet stain (0.5% in 25% methanol) in each well. After 10 minutes, wells are rinsed, air dried, and then solubilized with 0.5 ml 10% sodium dodecylsulfate with shaking for 2 hours. Following transfer of 100 μl from each well to a 96-well plate, plates are read at OD490 on a Molecular Devices SpectraMax Plus Spectrophotometer Average OD490 values are computed using SOFTmax Pro Software (Molecular Devices) and IC50 values are determined by linear regression analysis using Prism version 3.02 (Graph Pad Software, San Diego).

Assay [3] in a line: Weight loss screen in Balb/C mice. It is filed as in vivo. The conditions noted are these: 60 mg/kg intraperitoneally. The protocol:
Weight Loss Screen for Novel FAS Inhibitors
Balb/C mice (Jackson Labs) are utilized for the initial weight loss screening. Animals are housed in temperature and 12 hour day/night cycle rooms and fed mouse chow and water ad lib. Three mice are utilized for each compound tested with vehicle controls in triplicate per experiment. For the experiments, mice are housed separately for each compound tested three mice to a cage. Compounds are diluted in DMSO at 10 mg/ml and mice are injected intraperitoneally with 60 mg/kg in approximately 100 μl of DMSO or with vehicle alone. Mice are observed and weighed daily; average weights and standard errors are computed with Excel (Microsoft). The experiment continues until treated animals reach their pretreatment weights.

The test system of a further assay is FAO. Nature of the assay: FAO SC 150 / FAO Max. The conditions noted are these: for FAO Max: at the concentration given under E18.
Another assay concerns the target T1, purified human FAS (Homo sapiens, UniProt P49327).
T1 construct: Human FAS was purified from cultured ZR-75-1 human breast cancer cells; endogenous in cells; host or cells: ZR-75-1 human breast cancer cells (ATCC); Purified by hypotonic lysis, PEG precipitations and Mono Q anion exchange
Description: FAS enzymatic activity (malonyl-CoA dependent NADPH oxidation, OD340). It is filed as biochemical. The conditions noted are these: purified human FAS from ZR-75-1 cells. The protocol:
Purification of FAS from ZR-75-1 Human Breast Cancer Cells.
Human FAS was purified from cultured ZR-75-1 human breast cancer cells obtained from the American Type Culture Collection. The procedure, adapted from Linn et al., 1981, and Kuhajda et al., 1994, utilizes hypotonic lysis, successive polyethyleneglycol (PEG) precipitations, and anion exchange chromatography. ZR-75-1 cells are cultured at 37° C. with 5% CO2 in RPMI culture medium with 10% fetal bovine serum, penicillin and streptomycin.
Ten T150 flasks of confluent cells are lysed with 1.5 ml lysis buffer (20 mM Tris-HCl, pH 7.5, 1 mM EDTA, 0.1 mM phenylmethanesulfonyl fluoride (PMSF), 0.1% Igepal CA-630) and dounce homogenized on ice for 20 strokes. The lysate is centrifuged in JA-20 rotor (Beckman) at 20,000 rpm for 30 minutes at 4° C. and the supernatant is brought to 42 ml with lysis buffer. A solution of 50% PEG 8000 in lysis buffer is added slowly to the supernatant to a final concentration of 7.5%. After rocking for 60 minutes at 4° C., the solution is centrifuged in JA-20 rotor (Beckman) at 15,000 rpm for 30 minutes at 4° C. Solid PEG 8000 is then added to the supernatant to a final concentration of 15%. After the rocking and centrifugation is repeated as above, the pellet is resuspended overnight at 4° C. in 10 ml of Buffer A (20 mM K2HPO4, pH 7.4). […] FAS protein concentration is determined using the Coomassie Plus Protein Assay Reagent (Pierce) according to manufacturer's specifications using BSA as a standard. […]
FAS activity is measured by monitoring the malonyl-CoA dependent oxidation of NADPH spectrophotometrically at OD340 in 96-well plates (Dils et al and Arslanian et al, 1975). […]
The assay is performed on a Molecular Devices SpectraMax Plus Spectrophotometer. […] Using the kinetic protocol, the wells are blanked on duplicate wells containing 100 μl of 100 mM K2HPO4, pH 6.5 and the plate is read at OD340 at 10 sec intervals for 5 minutes to measure any malonyl-CoA independent oxidation of NADPH. […] The plate is read again as above with the kinetic protocol to measure the malonyl-CoA dependent NADPH oxidation. […]

Assay [4] addresses rat liver acyl-CoA synthetase. The conditions noted are these: rat liver enzyme; read-out: 50% inhibition of rat liver acyl-CoA synthetase; cited from earlier work.
The subject of another assay is Raji cells. The conditions noted are these: cited from earlier work.

Values after ≈ are worked out from the molar mass of the structure shown.

T1 sequence (P49327 whole entry): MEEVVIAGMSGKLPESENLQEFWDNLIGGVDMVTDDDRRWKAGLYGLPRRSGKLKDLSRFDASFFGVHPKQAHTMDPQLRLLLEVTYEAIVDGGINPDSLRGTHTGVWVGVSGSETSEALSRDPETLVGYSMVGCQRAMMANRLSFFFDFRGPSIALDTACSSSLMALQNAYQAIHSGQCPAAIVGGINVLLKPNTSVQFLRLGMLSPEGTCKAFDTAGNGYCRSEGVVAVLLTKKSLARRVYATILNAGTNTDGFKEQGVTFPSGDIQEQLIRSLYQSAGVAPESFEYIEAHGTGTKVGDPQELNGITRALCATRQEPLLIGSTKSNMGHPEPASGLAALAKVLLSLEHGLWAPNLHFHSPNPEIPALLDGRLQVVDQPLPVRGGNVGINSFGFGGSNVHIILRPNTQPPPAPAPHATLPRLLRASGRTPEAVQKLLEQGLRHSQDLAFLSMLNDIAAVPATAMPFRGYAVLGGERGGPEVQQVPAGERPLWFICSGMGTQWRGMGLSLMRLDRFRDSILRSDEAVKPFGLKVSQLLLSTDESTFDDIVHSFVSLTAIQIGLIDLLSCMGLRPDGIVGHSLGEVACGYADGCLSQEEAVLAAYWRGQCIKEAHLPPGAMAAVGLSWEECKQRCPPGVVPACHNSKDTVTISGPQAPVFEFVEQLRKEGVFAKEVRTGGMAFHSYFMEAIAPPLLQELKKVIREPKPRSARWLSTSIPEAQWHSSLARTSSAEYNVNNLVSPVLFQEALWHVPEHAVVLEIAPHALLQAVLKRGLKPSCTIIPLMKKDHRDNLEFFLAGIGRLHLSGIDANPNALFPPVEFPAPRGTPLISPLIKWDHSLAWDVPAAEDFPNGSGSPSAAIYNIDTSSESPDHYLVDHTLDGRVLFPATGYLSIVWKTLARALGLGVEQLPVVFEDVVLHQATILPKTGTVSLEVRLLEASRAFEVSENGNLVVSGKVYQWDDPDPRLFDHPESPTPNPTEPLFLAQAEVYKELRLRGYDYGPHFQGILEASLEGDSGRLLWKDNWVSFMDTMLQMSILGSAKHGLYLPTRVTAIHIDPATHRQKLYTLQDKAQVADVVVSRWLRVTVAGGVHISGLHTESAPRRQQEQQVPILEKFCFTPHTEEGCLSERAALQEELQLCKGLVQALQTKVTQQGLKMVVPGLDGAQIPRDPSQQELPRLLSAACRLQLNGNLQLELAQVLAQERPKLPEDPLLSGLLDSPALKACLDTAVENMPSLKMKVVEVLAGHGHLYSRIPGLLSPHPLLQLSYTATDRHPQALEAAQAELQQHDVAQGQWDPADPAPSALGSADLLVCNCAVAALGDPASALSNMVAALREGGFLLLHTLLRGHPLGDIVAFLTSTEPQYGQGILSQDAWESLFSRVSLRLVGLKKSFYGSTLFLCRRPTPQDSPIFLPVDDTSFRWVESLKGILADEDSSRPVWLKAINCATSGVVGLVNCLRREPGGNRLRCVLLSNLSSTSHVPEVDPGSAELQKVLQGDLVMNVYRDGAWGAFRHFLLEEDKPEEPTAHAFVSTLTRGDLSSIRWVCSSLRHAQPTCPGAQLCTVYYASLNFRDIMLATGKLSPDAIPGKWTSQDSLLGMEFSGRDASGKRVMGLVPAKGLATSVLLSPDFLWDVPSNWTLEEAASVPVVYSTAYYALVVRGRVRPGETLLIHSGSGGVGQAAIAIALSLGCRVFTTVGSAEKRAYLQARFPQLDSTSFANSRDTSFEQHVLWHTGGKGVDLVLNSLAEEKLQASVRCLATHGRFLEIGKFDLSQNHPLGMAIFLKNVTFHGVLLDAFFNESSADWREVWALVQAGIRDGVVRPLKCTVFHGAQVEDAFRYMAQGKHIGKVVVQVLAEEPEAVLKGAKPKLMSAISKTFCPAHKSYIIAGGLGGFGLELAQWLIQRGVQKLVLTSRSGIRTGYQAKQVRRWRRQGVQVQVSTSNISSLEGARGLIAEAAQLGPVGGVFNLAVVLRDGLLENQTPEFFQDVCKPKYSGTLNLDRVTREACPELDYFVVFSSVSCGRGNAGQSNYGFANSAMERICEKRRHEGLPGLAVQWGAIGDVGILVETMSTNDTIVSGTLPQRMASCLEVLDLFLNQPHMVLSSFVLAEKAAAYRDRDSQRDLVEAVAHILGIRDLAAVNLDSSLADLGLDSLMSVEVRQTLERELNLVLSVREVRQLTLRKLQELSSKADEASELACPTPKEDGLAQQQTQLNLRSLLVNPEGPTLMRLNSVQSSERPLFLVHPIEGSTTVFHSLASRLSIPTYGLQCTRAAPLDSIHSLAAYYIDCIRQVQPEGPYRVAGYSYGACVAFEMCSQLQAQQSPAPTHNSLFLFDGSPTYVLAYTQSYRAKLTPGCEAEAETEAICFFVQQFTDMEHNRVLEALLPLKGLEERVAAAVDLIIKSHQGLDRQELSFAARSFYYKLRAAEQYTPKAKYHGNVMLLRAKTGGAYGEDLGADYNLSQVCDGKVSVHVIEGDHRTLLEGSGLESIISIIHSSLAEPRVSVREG

Regarding `CCCCCCCCC1(C)SC(=O)C=C1OCC(=O)NNc1ccc(C(F)(F)F)cc1` (stereo not drawn) [Compound 12, (5-Methyl-5-octyl-2-oxo-thiophen-4-yloxy)-acetic-acid-N′-(4-trifluoromethylphenyl)-hydrazide], the IC50 was found to be 11.3 µg/mL (≈ 24.6 µM) in assay [1], 5.7 µg/mL (≈ 12.4 µM) in assay [2], 9.6 µg/mL (≈ 20.9 µM) with OV and 4.8 µg/mL (≈ 10.5 µM) with H. Besides, the “Weight Loss” value in assay [3] (day 2) is reported as 60 mg/kg: 2.7% (day 2). For the same compound, the “FAO Max: concentration at which the maximum was seen” value (“FAO Max: concentration” for short) with FAO was determined as 1.56 μg/ml ug/ml. Besides, the “FAO SC 150” value with FAO is “Neg”. The “FAO Max” value in the assay with FAO came out at 118% at.

Take “(5-Methyl-5-hexyl-2-oxo-thiophen-4-yloxy)-acetic-acid-M-(4-chlorophenyl)-hydrazide [Compound 21]”: the “FAS (IC50)” value at purified human FAS is “Neg”. Further, in assay [2], the “XTT (IC50)” value is on record as 9.8 μg/ml (M) ug/ml. Besides, the XTT (IC50) with OV turned out to be 11.2 µg/mL. In addition, in the assay with FAO, the “FAO Max: concentration” value was 0.024 μg/ml ug/ml, the “FAO SC 150” value is “Neg” and the “FAO Max” value was 104% at.

As for `CCCCCCCCC1(C)SC(=O)C=C1OCC(=O)NNc1cc(C(F)(F)F)ccc1Cl` (stereo not drawn) [Compound 16, (5-Methyl-5-octyl-2-oxo-thiophen-4-yloxy)-acetic-acid-N′-[2-chloro-5-(trifluoromethyl)phenyl]-hydrazide], the IC50 came out at 16.5 µg/mL (≈ 33.5 µM) in [1], 6 µg/mL (≈ 12.2 µM) in assay [2], 7.2 µg/mL (≈ 14.6 µM) in the assay on OV and 5.8 µg/mL (≈ 11.8 µM) in the assay on H. For the same compound, the “Weight Loss” value in assay [3] (day 3) was 60 mg/kg: 1.7 % (day 3). For the same compound, the “FAO Max: concentration” value in the assay on FAO worked out at 6.25 µg/mL. Further, the “FAO SC 150” value in the assay on FAO is “Neg”. In the assay with FAO, the “FAO Max” value worked out at 137% @.

For the compound `CCCC=CCC=CC=CC=NN=NO` [Triacsin C, 1-hydroxy-3-(E, E, E-2′,4′,7′-undecatrienylidine) triazene], in assay [4], the IC50 was 8.7 µM. Moreover, the “growth inhibition in Raji cells at” value with Raji cells was 1.0 µM.
